Data from ChEMBL document CHEMBL5678818, “Discovery of potent SOS1 inhibitors that block RAS activation via disruption of the RAS-SOS1 interaction” (Proc Natl Acad Sci U S A, 2019).

Assays:
[1] = system: Serine/threonine-protein kinase B-raf (Homo sapiens), P15056 [V600E]; assay: Inhibition of BRAF V600E mutant (unknown origin) assessed as residual activity at 1000 nM by KINOMEscan analysis relative to control
[2] = system: Receptor-type tyrosine-protein kinase FLT3 (Homo sapiens), P36888 [UNDEFINED MUTATION]; assay: Inhibition of FLT3 ITD mutant (unknown origin) assessed as residual activity at 1000 nM by KINOMEscan analysis relative to control
Chain of Receptor-type tyrosine-protein kinase FLT3 (Homo sapiens), P36888 [UNDEFINED MUTATION] (P36888 whole entry, looked up, stated change not applied): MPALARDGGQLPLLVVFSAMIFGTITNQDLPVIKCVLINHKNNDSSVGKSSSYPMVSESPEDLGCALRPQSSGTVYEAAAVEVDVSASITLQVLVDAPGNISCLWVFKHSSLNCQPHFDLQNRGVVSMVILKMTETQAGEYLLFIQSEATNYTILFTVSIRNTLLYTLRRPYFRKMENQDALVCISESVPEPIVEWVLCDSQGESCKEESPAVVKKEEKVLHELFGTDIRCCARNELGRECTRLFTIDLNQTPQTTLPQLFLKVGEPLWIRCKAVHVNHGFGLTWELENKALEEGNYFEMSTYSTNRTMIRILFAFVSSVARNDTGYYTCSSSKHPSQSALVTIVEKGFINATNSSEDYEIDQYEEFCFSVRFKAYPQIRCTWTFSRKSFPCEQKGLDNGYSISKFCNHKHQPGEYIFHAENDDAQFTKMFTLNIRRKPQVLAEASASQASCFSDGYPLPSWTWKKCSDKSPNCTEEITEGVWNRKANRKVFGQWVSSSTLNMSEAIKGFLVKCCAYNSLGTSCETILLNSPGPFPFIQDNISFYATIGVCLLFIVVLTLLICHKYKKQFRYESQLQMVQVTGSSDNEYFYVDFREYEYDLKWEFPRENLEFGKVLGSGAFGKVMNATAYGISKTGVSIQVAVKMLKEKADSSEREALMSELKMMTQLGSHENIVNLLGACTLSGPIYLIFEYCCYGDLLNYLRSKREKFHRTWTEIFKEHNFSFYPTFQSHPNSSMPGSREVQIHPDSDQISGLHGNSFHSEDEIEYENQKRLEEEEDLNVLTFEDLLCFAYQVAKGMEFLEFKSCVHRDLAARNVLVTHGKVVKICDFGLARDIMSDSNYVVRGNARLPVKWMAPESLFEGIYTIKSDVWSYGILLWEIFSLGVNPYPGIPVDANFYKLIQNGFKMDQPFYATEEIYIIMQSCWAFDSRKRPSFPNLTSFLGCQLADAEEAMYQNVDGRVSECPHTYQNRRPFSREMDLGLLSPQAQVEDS

[3] = system: Mast/stem cell growth factor receptor Kit (Homo sapiens), P10721 [A829P]; assay: Inhibition of KIT A829P mutant (unknown origin) assessed as residual activity at 1000 nM by KINOMEscan analysis relative to control
Chain of Mast/stem cell growth factor receptor Kit (Homo sapiens), P10721 [A829P] (P10721 whole entry A829P): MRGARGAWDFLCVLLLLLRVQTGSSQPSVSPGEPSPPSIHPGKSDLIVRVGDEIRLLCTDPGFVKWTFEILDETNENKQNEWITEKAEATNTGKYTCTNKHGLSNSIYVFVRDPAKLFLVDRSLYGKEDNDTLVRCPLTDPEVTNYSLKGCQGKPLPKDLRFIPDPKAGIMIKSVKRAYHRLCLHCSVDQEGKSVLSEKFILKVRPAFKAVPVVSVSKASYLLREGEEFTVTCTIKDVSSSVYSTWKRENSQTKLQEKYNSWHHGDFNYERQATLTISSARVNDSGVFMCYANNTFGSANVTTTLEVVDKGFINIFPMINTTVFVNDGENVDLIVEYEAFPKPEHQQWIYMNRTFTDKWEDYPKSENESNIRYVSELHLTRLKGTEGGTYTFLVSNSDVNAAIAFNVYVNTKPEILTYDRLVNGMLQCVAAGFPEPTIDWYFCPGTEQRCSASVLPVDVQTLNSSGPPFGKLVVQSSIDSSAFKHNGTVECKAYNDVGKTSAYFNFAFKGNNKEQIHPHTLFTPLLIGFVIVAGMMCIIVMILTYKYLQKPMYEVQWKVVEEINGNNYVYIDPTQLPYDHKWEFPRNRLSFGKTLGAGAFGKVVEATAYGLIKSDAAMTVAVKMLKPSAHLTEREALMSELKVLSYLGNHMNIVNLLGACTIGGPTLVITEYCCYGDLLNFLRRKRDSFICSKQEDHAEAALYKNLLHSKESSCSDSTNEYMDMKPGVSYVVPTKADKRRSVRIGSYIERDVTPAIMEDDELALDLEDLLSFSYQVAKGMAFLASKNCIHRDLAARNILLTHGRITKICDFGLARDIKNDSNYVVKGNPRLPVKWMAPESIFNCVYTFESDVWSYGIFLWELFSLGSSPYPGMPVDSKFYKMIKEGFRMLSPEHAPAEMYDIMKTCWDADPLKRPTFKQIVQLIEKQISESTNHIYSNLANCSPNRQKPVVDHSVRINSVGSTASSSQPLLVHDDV

[4] = target: T1, Mitogen-activated protein kinase kinase kinase 13 (Homo sapiens) (UniProt O43283); assay: Inhibition of LZK (unknown origin) assessed as residual activity at 1000 nM by KINOMEscan analysis relative to control
T1 sequence (whole entry): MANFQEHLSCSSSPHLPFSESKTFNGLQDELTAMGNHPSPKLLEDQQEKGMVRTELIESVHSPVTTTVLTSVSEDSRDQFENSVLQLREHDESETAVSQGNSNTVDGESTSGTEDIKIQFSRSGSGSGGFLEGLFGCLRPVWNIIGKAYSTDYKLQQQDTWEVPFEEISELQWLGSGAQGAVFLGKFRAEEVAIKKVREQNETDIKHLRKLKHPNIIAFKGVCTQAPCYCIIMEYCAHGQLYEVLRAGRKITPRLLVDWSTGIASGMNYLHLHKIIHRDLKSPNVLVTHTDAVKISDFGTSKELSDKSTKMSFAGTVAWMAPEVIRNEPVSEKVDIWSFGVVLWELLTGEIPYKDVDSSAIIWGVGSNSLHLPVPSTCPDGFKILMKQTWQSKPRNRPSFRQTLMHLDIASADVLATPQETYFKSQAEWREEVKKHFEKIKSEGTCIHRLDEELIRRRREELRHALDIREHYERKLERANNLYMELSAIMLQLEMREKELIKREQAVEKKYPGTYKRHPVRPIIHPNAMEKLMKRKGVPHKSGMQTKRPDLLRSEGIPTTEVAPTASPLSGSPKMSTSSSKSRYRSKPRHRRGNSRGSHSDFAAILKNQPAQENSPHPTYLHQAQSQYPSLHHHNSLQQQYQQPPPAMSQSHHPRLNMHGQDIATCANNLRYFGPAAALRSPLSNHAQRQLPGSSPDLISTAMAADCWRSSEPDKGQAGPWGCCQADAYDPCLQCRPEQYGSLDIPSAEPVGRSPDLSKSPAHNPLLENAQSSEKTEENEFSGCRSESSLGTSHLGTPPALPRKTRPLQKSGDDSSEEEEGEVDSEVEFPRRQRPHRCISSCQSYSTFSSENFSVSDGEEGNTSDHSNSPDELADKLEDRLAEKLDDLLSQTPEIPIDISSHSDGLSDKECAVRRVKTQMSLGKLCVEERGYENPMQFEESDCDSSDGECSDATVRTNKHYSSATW

[5] = target: T2, Myosin light chain kinase family member 4 (Homo sapiens) (UniProt Q86YV6); assay: Inhibition of MYLK4 (unknown origin) assessed as residual activity at 1000 nM by KINOMEscan analysis relative to control
T2 sequence (whole entry): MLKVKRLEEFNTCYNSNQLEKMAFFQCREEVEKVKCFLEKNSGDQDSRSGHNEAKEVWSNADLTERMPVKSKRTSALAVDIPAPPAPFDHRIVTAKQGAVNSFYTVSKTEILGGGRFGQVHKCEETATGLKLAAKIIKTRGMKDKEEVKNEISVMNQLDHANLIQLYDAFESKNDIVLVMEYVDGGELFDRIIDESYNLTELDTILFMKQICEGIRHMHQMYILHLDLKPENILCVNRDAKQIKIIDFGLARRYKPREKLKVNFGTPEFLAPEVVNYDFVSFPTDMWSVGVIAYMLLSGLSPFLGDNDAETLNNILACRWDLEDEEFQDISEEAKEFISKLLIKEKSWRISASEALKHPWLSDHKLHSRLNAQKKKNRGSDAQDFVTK

[6] = target: Platelet-derived growth factor receptor alpha (Homo sapiens) (UniProt P16234); assay: Inhibition of PDGFRA (unknown origin) assessed as residual activity at 1000 nM by KINOMEscan analysis relative to control
[7] = system: Phosphatidylinositol 4,5-bisphosphate 3-kinase catalytic subunit alpha isoform (Homo sapiens), P42336 [I800L]; assay: Inhibition of PIK3CA I800L mutant (unknown origin) assessed as residual activity at 1000 nM by KINOMEscan analysis relative to control
Chain of Phosphatidylinositol 4,5-bisphosphate 3-kinase catalytic subunit alpha isoform (Homo sapiens), P42336 [I800L] (P42336 whole entry I800L, canonical isoform): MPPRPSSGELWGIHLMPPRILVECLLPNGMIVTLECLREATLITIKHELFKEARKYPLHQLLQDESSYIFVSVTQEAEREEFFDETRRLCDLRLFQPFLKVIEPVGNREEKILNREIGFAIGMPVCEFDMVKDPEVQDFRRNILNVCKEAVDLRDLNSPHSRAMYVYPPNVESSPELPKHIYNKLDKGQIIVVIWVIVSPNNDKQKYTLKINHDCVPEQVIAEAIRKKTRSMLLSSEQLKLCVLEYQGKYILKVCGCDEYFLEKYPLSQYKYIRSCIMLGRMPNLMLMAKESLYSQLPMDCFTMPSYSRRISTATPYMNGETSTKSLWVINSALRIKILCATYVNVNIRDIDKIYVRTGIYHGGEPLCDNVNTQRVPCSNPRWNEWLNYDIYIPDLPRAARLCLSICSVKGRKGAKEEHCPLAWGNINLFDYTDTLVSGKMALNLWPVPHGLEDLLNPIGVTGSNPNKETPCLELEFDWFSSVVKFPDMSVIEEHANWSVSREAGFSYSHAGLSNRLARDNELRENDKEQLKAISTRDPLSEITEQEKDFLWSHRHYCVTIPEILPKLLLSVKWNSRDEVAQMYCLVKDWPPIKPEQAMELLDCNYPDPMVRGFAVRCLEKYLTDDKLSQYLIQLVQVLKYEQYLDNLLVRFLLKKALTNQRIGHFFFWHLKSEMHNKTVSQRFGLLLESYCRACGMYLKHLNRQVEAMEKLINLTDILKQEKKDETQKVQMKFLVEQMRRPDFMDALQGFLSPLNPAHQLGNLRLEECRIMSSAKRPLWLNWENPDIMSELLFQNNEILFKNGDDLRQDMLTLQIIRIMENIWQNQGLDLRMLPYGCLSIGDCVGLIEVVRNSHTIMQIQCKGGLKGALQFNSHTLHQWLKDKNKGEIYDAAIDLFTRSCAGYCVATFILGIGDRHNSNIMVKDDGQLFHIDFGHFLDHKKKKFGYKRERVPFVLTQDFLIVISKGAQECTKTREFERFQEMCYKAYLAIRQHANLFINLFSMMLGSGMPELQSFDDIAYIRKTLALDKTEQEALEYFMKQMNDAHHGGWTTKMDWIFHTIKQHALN

[8] = target: Serine/threonine-protein kinase N2 (Homo sapiens) (UniProt Q16513); assay: Inhibition of PKN2 (unknown origin) assessed as residual activity at 1000 nM by KINOMEscan analysis relative to control
Chain of Serine/threonine-protein kinase N2 (Homo sapiens) (Q16513 whole entry, looked up): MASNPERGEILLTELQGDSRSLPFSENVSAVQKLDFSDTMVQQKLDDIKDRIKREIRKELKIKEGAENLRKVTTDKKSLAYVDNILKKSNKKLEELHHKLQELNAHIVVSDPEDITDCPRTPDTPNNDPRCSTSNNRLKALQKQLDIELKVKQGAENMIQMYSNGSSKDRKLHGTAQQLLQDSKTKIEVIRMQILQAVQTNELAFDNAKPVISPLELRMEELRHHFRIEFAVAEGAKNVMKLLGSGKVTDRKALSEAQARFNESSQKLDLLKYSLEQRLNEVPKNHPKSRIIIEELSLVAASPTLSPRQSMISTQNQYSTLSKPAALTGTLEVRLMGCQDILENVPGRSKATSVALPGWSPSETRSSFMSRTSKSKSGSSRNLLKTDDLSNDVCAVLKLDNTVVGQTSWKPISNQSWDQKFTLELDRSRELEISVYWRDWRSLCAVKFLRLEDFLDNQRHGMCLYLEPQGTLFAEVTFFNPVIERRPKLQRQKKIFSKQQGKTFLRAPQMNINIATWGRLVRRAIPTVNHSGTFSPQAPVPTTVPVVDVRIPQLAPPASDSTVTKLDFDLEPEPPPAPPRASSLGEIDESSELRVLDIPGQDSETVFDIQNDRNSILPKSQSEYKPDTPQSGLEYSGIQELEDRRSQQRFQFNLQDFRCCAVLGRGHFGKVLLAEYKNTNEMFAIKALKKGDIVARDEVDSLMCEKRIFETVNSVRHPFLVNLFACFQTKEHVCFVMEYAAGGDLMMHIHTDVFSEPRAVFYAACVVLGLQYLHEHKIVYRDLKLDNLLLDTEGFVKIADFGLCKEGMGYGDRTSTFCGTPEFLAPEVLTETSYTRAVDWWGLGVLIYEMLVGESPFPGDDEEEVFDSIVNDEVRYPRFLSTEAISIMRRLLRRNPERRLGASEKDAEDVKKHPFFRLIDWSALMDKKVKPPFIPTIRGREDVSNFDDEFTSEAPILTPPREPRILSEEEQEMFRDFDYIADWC

[9] = target: Serine/threonine-protein kinase SIK1 (Homo sapiens) (UniProt P57059); assay: Inhibition of SIK (unknown origin) assessed as residual activity at 1000 nM by KINOMEscan analysis relative to control
Chain of Serine/threonine-protein kinase SIK1 (Homo sapiens) (P57059 whole entry): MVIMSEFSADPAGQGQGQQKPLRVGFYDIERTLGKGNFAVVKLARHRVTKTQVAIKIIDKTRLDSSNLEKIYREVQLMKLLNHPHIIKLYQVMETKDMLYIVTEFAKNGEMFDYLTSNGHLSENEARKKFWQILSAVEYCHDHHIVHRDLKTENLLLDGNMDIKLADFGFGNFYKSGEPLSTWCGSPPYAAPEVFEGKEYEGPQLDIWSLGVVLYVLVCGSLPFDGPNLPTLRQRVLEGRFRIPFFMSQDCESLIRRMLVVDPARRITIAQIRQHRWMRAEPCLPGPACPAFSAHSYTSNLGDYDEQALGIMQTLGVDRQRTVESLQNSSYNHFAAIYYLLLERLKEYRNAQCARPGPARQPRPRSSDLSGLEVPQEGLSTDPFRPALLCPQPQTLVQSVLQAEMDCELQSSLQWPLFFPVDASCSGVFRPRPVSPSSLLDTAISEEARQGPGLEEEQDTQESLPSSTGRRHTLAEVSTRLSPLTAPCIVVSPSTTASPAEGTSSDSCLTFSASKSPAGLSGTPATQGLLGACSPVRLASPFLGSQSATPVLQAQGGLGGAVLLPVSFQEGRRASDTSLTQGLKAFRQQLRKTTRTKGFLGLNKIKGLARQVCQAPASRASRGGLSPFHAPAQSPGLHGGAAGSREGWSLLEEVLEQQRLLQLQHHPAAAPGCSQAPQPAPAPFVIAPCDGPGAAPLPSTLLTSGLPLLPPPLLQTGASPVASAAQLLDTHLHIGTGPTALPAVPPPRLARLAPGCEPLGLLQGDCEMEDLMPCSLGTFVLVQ

[10] = target: T3, Mitogen-activated protein kinase kinase kinase 7 (Homo sapiens) (UniProt O43318); assay: Inhibition of TAK1 (unknown origin) assessed as residual activity at 1000 nM by KINOMEscan analysis relative to control
T3 sequence (whole entry): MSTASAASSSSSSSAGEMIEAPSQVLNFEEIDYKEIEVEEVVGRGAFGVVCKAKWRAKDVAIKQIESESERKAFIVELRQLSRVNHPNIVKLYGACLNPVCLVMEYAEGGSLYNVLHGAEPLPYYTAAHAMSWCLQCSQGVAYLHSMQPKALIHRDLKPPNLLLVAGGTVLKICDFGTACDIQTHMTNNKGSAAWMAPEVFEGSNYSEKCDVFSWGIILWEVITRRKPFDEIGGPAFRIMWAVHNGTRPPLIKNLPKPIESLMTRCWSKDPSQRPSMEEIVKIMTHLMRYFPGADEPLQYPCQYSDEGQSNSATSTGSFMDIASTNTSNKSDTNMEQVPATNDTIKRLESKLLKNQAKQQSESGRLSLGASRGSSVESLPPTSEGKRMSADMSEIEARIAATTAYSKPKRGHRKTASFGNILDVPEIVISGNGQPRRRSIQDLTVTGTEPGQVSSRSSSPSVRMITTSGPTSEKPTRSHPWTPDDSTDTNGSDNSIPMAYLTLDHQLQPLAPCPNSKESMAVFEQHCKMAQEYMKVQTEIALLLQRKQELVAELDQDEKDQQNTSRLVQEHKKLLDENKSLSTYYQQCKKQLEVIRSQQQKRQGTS

[11] = target: TGF-beta receptor type-2 (Homo sapiens) (UniProt P37173); assay: Inhibition of TGFBR2 (unknown origin) assessed as residual activity at 1000 nM by KINOMEscan analysis relative to control

SMILES	Activity [1]	Activity [2]	Activity [3]	Activity [4]	Activity [5]	Activity [6]	Activity [7]	Activity [8]	Activity [9]	Activity [10]	Activity [11]
COc1cc2nc(C)nc(N[C@H](C)c3cccc(-c4cn[nH]c4)c3)c2cc1OC	65%	58%	93%	94%	92%	100%	63%	78%	65%	100%	93%
COc1cc2ncnc(N[C@H](C)c3cccc4ccccc34)c2cc1OC	97%	96%	94%	99%	75%	100%	96%	100%	98%	85%	100%
